Measured values reported in patent US20240376073A1 (Hoffmann-La Roche Inc., priority 2021, published 2024).
Structures can show the parent of a compound that is named as a salt.

What follows are compounds tested on Acinetobacter baumannii ATCC17961 (assay: Antimicrobial susceptibility testing: 90% growth inhibitory concentration (IC90) determination). Conditions: Acinetobacter baumannii ATCC17961; Iso-Sensitest broth; growth by OD 600 nm over 16 h; 35±2° C.; read-out: ATCC 17961 IC90.
Assay type: cell-based
In short: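 Twofold serial dilutions (e.g. 50 to 0.097 μM final) in Iso-Sensitest broth, inoculated at ~5×10^(5) CFU/ml, incubated at 35±2° C. OD600 read every 20 min over 16 h; IC90 derived from growth inhibition during logarithmic growth.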

| IC90 [nM] | Compound |
| --- | --- |
| 57 | COc1ccc(-c2cnc(C(=O)Nc3ccc(C(=O)N4CCN(C(=O)C5CC[N+](C)(CC(N)=O)CC5)CC4)c(Cl)c3)n2C)c(Cl)c1F (stereo not drawn) [Example C3, N-[4-[4-[1-(2-amino-2-oxo-ethyl)-1-methyl-piperidin-1-ium-4-carbonyl]-piperazine-1-carbonyl]-3-chloro-phenyl]-5-(2-chloro-3-fluoro-4-meth-oxy-phenyl)-1-methyl-imid-azole-2-carbox-amide; formate] |
| 73 | COc1ccc(-c2cnc(C(=O)Nc3ccc(C(=O)N4CCN(C(=O)C5CC[N+](C)(CC(N)=O)CC5)CC4)c(Cl)c3)n2C)c(F)c1F (stereo not drawn) [Example C5, N-[4-[4-[1-(2-amino-2-oxo-ethyl)-1-methyl-piperidin-1-ium-4-carbonyl]-piperazine-1-carbonyl]-3-chloro-phenyl]-5-(2,3-difluoro-4-methoxy-phenyl)-1-meth-yl-imidazole-2-carboxamide; formate] |
| 160 | COc1ccc(-c2cnc(C(=O)Nc3ccc(C(=O)N4CCN(C(=O)C5CCN(C(=O)C[N+](C)(C)C)CC5)CC4)c(Cl)c3)n2C)c(F)c1F [Example C6, [2-[4-[4-[2-chloro-4-[5-(2,3-difluoro-4-methoxy-phen-yl)-1-methyl-imidazole-2-carbonyl]amino]-benzoyl]piper-azine-1-carbon-yl]-1-piperidyl]-2-oxo-ethyl]-trimethyl-ammonium; formate] |
| 250 | COc1ccc(-c2cnc(C(=O)Nc3ccc(C(=O)N4CCN(C(=O)C5CCN(C(=O)C[N+](C)(C)CC(N)=O)CC5)CC4)c(Cl)c3)n2C)c(F)c1F [Example C7, (2-amino-2-oxo-ethyl)-[2-[4-[4-[2-chloro-4-[[5-(2,3-difluoro-4-methoxy-phenyl)-1-meth-yl-imidazole-2-carbonyl]amino]-benzoyl]piper-azine-1-carbon-yl]-1-piperidyl]-2-oxo-ethyl]-dimethyl-ammo-nium; formate] |

Further lines, the compound ahead of its results:

| Compound | IC90 [nM] |
| --- | --- |
| Cn1c(-c2ccc(OC(F)F)c(F)c2F)cnc1C(=O)Nc1ccc(C(=O)N2CCN(C(=O)C3CC[N+](C)(CC(N)=O)CC3)CC2)c(Cl)c1 (stereo not drawn) [Example C2, N-[4-[4-[1-(2-amino-2-oxo-ethyl)-1-methyl-piperidin-1-ium-4-carbonyl]-piperazine-1-carbonyl]-3-chloro-phenyl]-5-[4-(difluoro-methoxy)-2,3-difluoro-phen-yl]-1-methyl-imidazole-2-carboxamide; formate] | 34 |
| COc1ccc(-c2cnc(C(=O)Nc3ccc(C(=O)N4CCN(C(=O)C5CC[N+](C)(CC(=O)O)CC5)CC4)c(Cl)c3)n2C)c(F)c1F (stereo not drawn) [Example C8, 2-[4-[4-[2-chloro-4-[[5-(2,3-difluoro-4-methoxy-phen-yl)-1-methyl-imidazole-2-carbonyl]amino]-benzoyl]piper-azine-1-carbon-yl]-1-methyl-piperidin-1-ium-1-yl]acetic acid; formate] | 640 |
| Cn1c(-c2ccc(OC(F)F)c(F)c2Cl)cnc1C(=O)Nc1ccc(C(=O)N2CCN(C(=O)C3CC[N+](C)(CCN)CC3)CC2)c(Cl)c1 (stereo not drawn) [Example C12, N-[4-[4-[1-(2-aminoethyl)-1-methyl-piperidin-1-ium-4-carbon-yl]piperazine-1-carbonyl]-3-chloro-phenyl]-5-[2-chloro-4-(difluorometh-oxy)-3-fluoro-phenyl]-1-methyl-imidazole-2-carboxamide; formic acid; formate] | 43 |

Same assay, conditions: Acinetobacter baumannii, ATCC17961, 16 h, read-out: ATCC 17961 IC90, Acinetobacter baumannii ATCC17961; Iso-Sensitest broth; growth by OD 600 nm over 16 h; 35±2° C.

| Compound | IC90 [nM] |
| --- | --- |
| Cn1c(-c2ccc(OC(F)F)c(F)c2Cl)cnc1C(=O)Nc1ccc(C(=O)N2CCN(C(=O)C3CC[N+](CC(N)=O)(CC(N)=O)CC3)CC2)c(Cl)c1 [Example C9, N-[4-[4-[1,1-bis(2-amino-2-oxo-ethyl)piper-idin-1-ium-4-carbonyl]piper-azine-1-carbon-yl]-3-chloro-phenyl]-5-[2-chloro-4-(difluorometh-oxy)-3-fluoro-phenyl]-1-methyl-imid-azole-2-carbox-amide; formate] | 120 |
| Cn1c(-c2ccc(OC(F)F)c(F)c2Cl)cnc1C(=O)Nc1ccc(C(=O)N2CCN(C(=O)C3CC[N+](CC(N)=O)(CC4CNC4)CC3)CC2)c(Cl)c1 (stereo not drawn) [Example C10] | 100 |
